# In BindingDB's records for patent US20250326790 (University of Southampton, 2025):
# Where a SMILES comes first, the peptide text is derived from it. [ ]: non-standard residue; d: D form. The star is where a group is joined. Phe(4-I) = N[C@@H](Cc1ccc(I)cc1)C(=O)O; hLeu = CC(C)CC[C@H](N)C(=O)O; Isobutyryl = CC(C)C(=O)*
# Target: T1, Hypoxia-inducible factor 1-alpha [228-298] (Homo sapiens, UniProt Q16665)
# T1 construct: 228-298
# Assay: Assessment of HIF-1α and 2α Binding Activity in In Vitro Assays
# Method: MST experiments were performed on a Monolith NT.115 system (Nanotemper Technologies GmbH), in assay buffer containing 50 nM labelled protein, 10% DMSO and 0.05% TWEEN-20. MST measurements were performed using 50% LED and 50% MST power.
# T1 sequence (Q16665 whole entry): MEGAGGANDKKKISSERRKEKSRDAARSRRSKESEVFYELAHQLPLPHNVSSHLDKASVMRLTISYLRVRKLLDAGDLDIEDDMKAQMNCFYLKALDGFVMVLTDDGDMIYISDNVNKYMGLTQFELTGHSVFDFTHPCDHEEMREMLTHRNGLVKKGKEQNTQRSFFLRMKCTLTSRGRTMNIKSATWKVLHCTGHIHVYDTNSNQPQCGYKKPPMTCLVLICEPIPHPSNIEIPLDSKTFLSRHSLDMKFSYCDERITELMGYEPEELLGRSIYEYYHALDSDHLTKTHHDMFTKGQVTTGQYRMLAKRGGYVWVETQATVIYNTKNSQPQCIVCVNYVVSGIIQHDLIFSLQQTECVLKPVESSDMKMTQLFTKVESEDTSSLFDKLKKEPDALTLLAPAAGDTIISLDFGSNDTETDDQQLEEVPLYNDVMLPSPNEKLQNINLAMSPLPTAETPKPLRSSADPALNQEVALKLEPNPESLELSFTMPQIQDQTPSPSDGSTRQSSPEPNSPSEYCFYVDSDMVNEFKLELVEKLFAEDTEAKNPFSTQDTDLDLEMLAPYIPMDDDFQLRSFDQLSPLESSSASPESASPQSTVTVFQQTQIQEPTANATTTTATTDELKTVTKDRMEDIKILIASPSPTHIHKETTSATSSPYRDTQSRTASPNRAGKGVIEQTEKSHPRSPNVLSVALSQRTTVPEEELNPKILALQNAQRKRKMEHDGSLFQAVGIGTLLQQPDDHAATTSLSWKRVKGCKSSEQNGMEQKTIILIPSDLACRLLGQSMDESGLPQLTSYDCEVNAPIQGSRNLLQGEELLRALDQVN
row,Compound,Kd [µM]
1,"CC(C)CC[C@H](NS(=O)(=O)c1ccc(Cl)s1)C(=O)N[C@@H](Cc1ccc(I)cc1)C(=O)N[C@@H](CS)C(=O)NCCCCCCN [US20250326790, Example 41]",> 100
2,"CC(C)CC[C@H](NC(=O)C(C)C)C(=O)N[C@@H](Cc1ccc(I)cc1)C(=O)N[C@@H](CS)C(N)=O [US20250326790, Example 1] (Isobutyryl-[hLeu]-[Phe(4-I)]-Cys-NH2)",> 40
